# Measured values published in patent US4051259A, “Phenoxyacetic acid amide” (Les Laboratoires Bruneau & Cie, priority 1975, dated 1977).
# Tests used:
# [1] = toxicity (LD50) by the method of Karber and Behrens; assay type: in vivo, mice; details: mouse, in vivo; mice, po
# Excerpt: (§1) The toxicity (LD50) has been determined in the mice by the method of Karber and Behrens (Arch. Expl. Pathol. Pharmacol., 1931, 162, 48) and the anorexigenic activity (ED50) in the rat by the method of LeDouarec (J. Pharmacol. Paris 1970, 1, 419-22).
# [2] = test system: rat; assay: anorexigenic activity (ED50) by the method of LeDouarec; assay type: in vivo; details: for ED50: rat, po, read-out: ED50 po (anorexia); for anorexigenic activity (in words): comparison of results within the table
# Excerpt: as §1
# [3] = test system: mice; assay: toxicity (LD50) by the method of Karber and Behrens; assay type: in vivo; details: for toxicity (in words): comparison of results within the table
# Excerpt: as §1
SMILES,LD50 [1],ED50 [2],further results
CCNc1ccc(OCC(=O)NC(C)Cc2cccc(C(F)(F)F)c2)cc1 (stereo not drawn) [LB 359],1600 mg/kg,15 mg/kg,
CNc1ccc(OCC(=O)NC(C)Cc2cccc(C(F)(F)F)c2)cc1 (stereo not drawn) [LB 367],800 mg/kg,12 mg/kg,
CCCNc1ccc(OCC(=O)NC(C)Cc2cccc(C(F)(F)F)c2)cc1 (stereo not drawn) [LB 368],> 1600 mg/kg,20 mg/kg,
CC(C)CNc1ccc(OCC(=O)NC(C)Cc2cccc(C(F)(F)F)c2)cc1 (stereo not drawn) [LB 369],> 2000 mg/kg,25 mg/kg,
"CCCCCNc1ccc(OCC(=O)NC(C)Cc2cccc(C(F)(F)F)c2)cc1 (stereo not drawn) [LB 411, 1-methyl-2-(m-trifluoromethylphenyl)-ethylamide of p-pentylaminophenoxyacetic acid]",4000 mg/kg,10 mg/kg,"intensity of intoxication symptoms ([3]; at doses near the LD50): relatively weak; intoxication symptoms ([3]; at doses near the LD50, first hour, then later): hypomotility and hypothermia during the first hour than tremor and convulsions; toxicity (in words) [3]: very low; toxicity (in words) ([3]; listed as n-pentyl derivative): low toxicity; doses at which intoxication symptoms appear ([3]; doses relative to LD50): only at doses near of the LD50; anorexigenic activity (in words) [2]: particularly high; anorexigenic activity (in words) ([2]; listed as n-pentyl derivative): outstanding anorexia-inducing properties"
CCCCCCNc1ccc(OCC(=O)NC(C)Cc2cccc(C(F)(F)F)c2)cc1 (stereo not drawn) [LB 446],> 4000 mg/kg,45 mg/kg,
CCCCNc1ccc(OCC(=O)NC(C)Cc2cccc(C(F)(F)F)c2)cc1 (stereo not drawn) [LB 448],> 2000 mg/kg,20 mg/kg,
